Measurements taken from patent EP0938474B1, “CYCLOPROPYLINDOLE COMPOUNDS AND THEIR USE AS PRODRUGS” (AUCKLAND UNISERVICES LIMITED, priority 1996, dated 1998).
pIC50: −log10 of the molar value.

What was measured:
[1] = system: human colon NR-(wild-type) line WIDR; experiment: Cytotoxicity in untransfected control cells (NR-), nitroreductase activation test; format: cell-based; details: IC50, unit inferred, read-out: Human colon lines NR-
Text: (§1) Compounds of the invention were further tested against human cell lines (NR+ in Table 3) transfected with a gene encoding a bacterial nitroreductase (NR) enzyme to test for activation of compounds of the invention with NR. Untransfected control cells (NR- in Table 3) were used as controls. The cells used were the human colon NR-(wild-type) line WIDR and its transfected NR+ counterpart WC14.10; and the human ovarian NR- (wild-type) line SKOV3 together with its NR+ (transfected) counterpart SC3.2. The results are shown in Table 3, which also indicates the ratios of IC50s. These are intra-experiment values, and may differ slightly from those calculated from the given NR- and NR+ values.

[2] = system: human ovarian NR- (wild-type) line SKOV3; experiment: as above; format: cell-based; details: SK-OV-3, IC50, unit inferred, read-out: Human ovarian lines NR-
Text: as §1

SC3.2 = experiment: Cytotoxicity in cells transfected with bacterial nitroreductase (NR+); format: cell-based; details: Homo sapiens, SK-OV-3; SC3.2 (NR+ transfected counterpart of SKOV3); IC50, unit inferred; read-out: Human ovarian lines NR+
Text: as §1

WC14.10 = experiment: as above; format: cell-based; details: Homo sapiens; WC14.10 (NR+ transfected counterpart of WIDR); IC50, unit inferred; read-out: Human colon lines NR+
Text: as §1

AA8 = experiment: Cytotoxicity (growth inhibition), 4 h drug exposure, methylene blue staining; format: cell-based; details: Cricetulus griseus, CHO-AA8; AA8 wild type rodent cell line; 4 hours exposure, then three days incubation
Method: (§2) Compounds of the invention were tested for cytotoxicity against four different cell lines, all of which are widely available in the art. AA8 is a wild type rodent cell line. UV4 is a mutant AA8 cell line defective in excision repair, and hypersensitive to many alkylating agents. EMT6 is a widely-used rodent line. SKOV is a human ovarian cell line.
(§3) Cell culture assays were performed in 96-well microtitre trays. Compounds of the invention were added in culture medium, using serial two-fold dilutions to provide duplicate cultures at five different concentrations for each of eight drugs (plus eight controls) per tray. Drugs were dissolved in water or DMSO immediately prior to addition to the cell culture. After 4 hours, drugs were removed by washing cultures three times with fresh medium, and the trays were incubated for a futher three days. Cell density was then determined by staining with methylene blue as described previously (Finlay, G. J., et al, Anal. Biochm. 1984, 139, 272-277) and the IC50 was calculated as the drug concentration providing 50% inhibition of growth relative to the controls.

EMT6 = experiment: as above; format: cell-based; details: Mus musculus; EMT6 rodent line; 4 hours exposure, then three days incubation
Method: as §2, §3

SKOV3 = experiment: as above; format: cell-based; details: SK-OV-3; human ovarian cell line; 4 hours exposure, then three days incubation
Method: as §2, §3

UV4 = experiment: as above; format: cell-based, rodent; details: Cricetulus griseus; UV4 mutant AA8 line defective in excision repair; 4 hours exposure, then three days incubation
Method: as §2, §3

SMILES: COc1cc2cc(C(=O)N3CC(CCl)c4c3cc([N+](=O)[O-])c3ccccc43)[nH]c2c(OC)c1OC (racemic) [14a]
- pIC50 [1]: 5.89
- pIC50 [2]: 5.80
- pIC50 (SC3.2): 6.85
- pIC50 (WC14.10): 6.42

SMILES: COc1cc2cc(C(=O)N3C[C@H](CCl)c4c3cc([N+](=O)[O-])c3ccccc43)[nH]c2c(OC)c1OC [14aR]
- pIC50 [1]: < 4.70
- pIC50 [2]: < 4.70
- pIC50 (SC3.2): 6.52
- pIC50 (WC14.10): < 4.70

SMILES: COc1cc2cc(C(=O)N3C[C@@H](CCl)c4c3cc([N+](=O)[O-])c3ccccc43)[nH]c2c(OC)c1OC [14aS]
- pIC50 [1]: 6.46
- pIC50 [2]: 6.40
- pIC50 (SC3.2): 7.40
- pIC50 (WC14.10): 7.05

SMILES: O=C(c1cc2cc([N+](=O)[O-])ccc2[nH]1)N1CC(CCl)c2c1cc([N+](=O)[O-])c1ccccc21 (stereo not drawn) [14b, 1-(chloromethyl)-5-nitro-3-[(5-nitroindol-2-yl)carbonyl]-1,2-dihydro-3H-benz[e]indole]
- pIC50 [1]: 6.41
- pIC50 [2]: 6.40
- pIC50 (SC3.2): 6.41
- pIC50 (WC14.10): 6.68

SMILES: CC(=O)Nc1ccc2[nH]c(C(=O)N3CC(CCl)c4c3cc([N+](=O)[O-])c3ccccc43)cc2c1 (stereo not drawn) [14c, 3-[[5-(acetylamino)indol-2-yl]carbonyl]-1-(chloromethyl)-5-nitro-1,2-dihydro-3H-benz[e]indole]
- pIC50 [1]: 5.80
- pIC50 [2]: 5.37
- pIC50 (SC3.2): 6.60
- pIC50 (WC14.10): 6.44

SMILES: COc1ccc2[nH]c(C(=O)N3CC(CCl)c4c3cc([N+](=O)[O-])c3ccccc43)cc2c1 (stereo not drawn) [14d, 1-(chloromethyl)-3-[(5-methoxyindol-2-yl)carbonyl]-5-nitro-1,2-dihydro-3H-benz[e]indole]
- pIC50 [1]: 6.13
- pIC50 [2]: 6.24
- pIC50 (SC3.2): 6.82
- pIC50 (WC14.10): 6.54

SMILES: CN(C)CCOc1ccc2[nH]c(C(=O)N3CC(CCl)c4c3cc([N+](=O)[O-])c3ccccc43)cc2c1 (stereo not drawn) [14e, 1-(chloromethyl)-3-[[5-[2-(dimethylamino)-ethoxy]indol-2-yl]carbonyl] -5-nitro-1,2-dihydro-3H-benz [e] indole]
- pIC50 [1]: 6.43
- pIC50 [2]: 6.00
- pIC50 (SC3.2): 7.05
- pIC50 (WC14.10): 6.89

SMILES: CCCC(=O)Nc1cc(/C=C/C(=O)N2CC(CCl)c3c2cc([N+](=O)[O-])c2ccccc32)n(C)c1 (stereo not drawn) [14i, 3-[(E)-4-(butyrylamino)-1-methyl-2-pyrroleacryloyl]-1-(chloromethyl)-5-nitro-1,2-dihydro-3H-benz [e] indole]
- pIC50 [1]: 5.66
- pIC50 [2]: 5.37
- pIC50 (SC3.2): 6.41
- pIC50 (WC14.10): 6.22

SMILES: COc1cccc(/C=C/C(=O)N2CC(CCl)c3c2cc([N+](=O)[O-])c2ccccc32)c1 (stereo not drawn) [14l, 1-(chloromethyl)-3-[(E)-3-methoxycinnamoyl]-5-nitro-1,2-dihydro-3H-benz[e]iadole]
- pIC50 [1]: 6.85
- pIC50 [2]: 6.89
- pIC50 (SC3.2): 7.40
- pIC50 (WC14.10): 7.10

SMILES: COc1cc2cc(C(=O)N3CC(COS(C)(=O)=O)c4c3cc([N+](=O)[O-])c3ccccc43)[nH]c2c(OC)c1OC (stereo not drawn) [14o, 1-[(methanesulfonyloxy)methyl]-5-nitro-3-[(5,6,7-trimethoxyindol-2-yl)carbonyl]-1,2-dihydro-3H-benz[e]indole]
- pIC50 [1]: 6.39
- pIC50 [2]: 6.39
- pIC50 (SC3.2): 7.30
- pIC50 (WC14.10): 7.22

SMILES: COc1cc2cc(C(=O)N3CC(CCl)c4c3cc(N)c3ccccc43)[nH]c2c(OC)c1OC (stereo not drawn) [15a, 5-amino-1-(chloromethyl)-3-[(5,6,7-trimethoxyindol-2-yl)carbonyl]-1,2-dihydro-3H-benz [e] indole]
- pIC50 (AA8): 9.35
- pIC50 (EMT6): 9.57
- pIC50 (SKOV3): 9.00
- pIC50 (UV4): 9.55

SMILES: COc1cc2cc(C(=O)N3C[C@H](CCl)c4c3cc(N)c3ccccc43)[nH]c2c(OC)c1OC [15aR, (R)-5-amino-1-(chloromethyl)-3-[(5,6,7-trimethoxyindol-,2-yl)carbonyl]-1,2-dihydro-3H-benz[e]indole]
- pIC50 (AA8): 7.87
- pIC50 (EMT6): 8.15
- pIC50 (SKOV3): 8.11
- pIC50 (UV4): 8.59

SMILES: COc1cc2cc(C(=O)N3C[C@@H](CCl)c4c3cc(N)c3ccccc43)[nH]c2c(OC)c1OC [15aS, (S)-5-amino-1-(chloromethyl)-3-[(5,6,7-trimethoxyindol-2-yl)carbonyl]-1,2-dihydro-3H-benz[e]indole]
- pIC50 (AA8): 9.70
- pIC50 (EMT6): 10.00
- pIC50 (SKOV3): 9.30
- pIC50 (UV4): 10.00

SMILES: Nc1ccc2[nH]c(C(=O)N3CC(CCl)c4c3cc(N)c3ccccc43)cc2c1 (stereo not drawn) [15b, 5-amino-3-[(5-aminoindol-2-yl)carbonyl]-1-(chloromethyl)-1,2-dihydro-3H-benz [e] indole]
- pIC50 (AA8): 8.62
- pIC50 (EMT6): 9.10
- pIC50 (SKOV3): 8.52
- pIC50 (UV4): 9.00

SMILES: CC(=O)Nc1ccc2[nH]c(C(=O)N3CC(CCl)c4c3cc(N)c3ccccc43)cc2c1 (stereo not drawn) [15c, 3-[[5-(acetylamino)indol-2-yl]carbonyl]-5-amino-1-(chloromethyl)-1,2-dihydro-3H-benz[e]indole]
- pIC50 (AA8): 7.90
- pIC50 (EMT6): 8.28
- pIC50 (SKOV3): 7.74
- pIC50 (UV4): 8.12

SMILES: COc1ccc2[nH]c(C(=O)N3CC(CCl)c4c3cc(N)c3ccccc43)cc2c1 (stereo not drawn) [15d, 5-amino-1-(chloromethyl)-3-[(5-methoxyindol-2-yl)carbonyl]-1,2-dihydro-3H-benz[e] indole]
- pIC50 (AA8): 8.92
- pIC50 (EMT6): 9.05
- pIC50 (SKOV3): 8.74
- pIC50 (UV4): 9.10

SMILES: CN(C)CCOc1ccc2[nH]c(C(=O)N3CC(CCl)c4c3cc(N)c3ccccc43)cc2c1 (stereo not drawn) [15e, 5-amino-1-(chloromethyl)-3-[[5-[2-(dimethylamino)ethoxy]indol-2-yl]carbonyl]-1,2-dihydro-3H-benz [e] indole]
- pIC50 (AA8): 8.46
- pIC50 (EMT6): 9.05
- pIC50 (SKOV3): 8.19
- pIC50 (UV4): 8.85

SMILES: CCCC(=O)Nc1cc(/C=C/C(=O)N2CC(CCl)c3c2cc(N)c2ccccc32)n(C)c1 (stereo not drawn) [15i]
- pIC50 (AA8): 7.51
- pIC50 (EMT6): 8.23
- pIC50 (SKOV3): 7.66
- pIC50 (UV4): 7.80

SMILES: COc1cccc(/C=C/C(=O)N2CC(CCl)c3c2cc(N)c2ccccc32)c1 (stereo not drawn) [15l, 5-amino-1-(chloromethyl)-3-[(E)-3-methoxycinnamoyl]-1,2-dihydro-3H-benz[e]indole]
- pIC50 (AA8): 9.52
- pIC50 (EMT6): 9.70
- pIC50 (SKOV3): 9.22
- pIC50 (UV4): 9.40

SMILES: COc1cc2cc(C(=O)N3CC(COS(C)(=O)=O)c4c3cc(N)c3ccccc43)[nH]c2c(OC)c1OC (stereo not drawn) [15o, 5-amino-1-[(methanesulfonyloxy)methyl]-3-[(5,6,7-trimethoxyindol-2-yl)carbonyl]-1,2-dihydro-3H-benz[e]indole]
- pIC50 (AA8): 6.18
- pIC50 (EMT6): 6.63
- pIC50 (SKOV3): 5.88

SMILES: CNc1cc2c(c3ccccc13)C(CCl)CN2C(=O)c1cc2cc(OC)c(OC)c(OC)c2[nH]1 (stereo not drawn) [15p, 1-(chloromethyl)-5-methylamino-3-[(5,6,7-trimethoxyindol-2-yl)carbonyl]-1,2-dihydro-3H-benz[e]indole]
- pIC50 (AA8): 10.00
- pIC50 (EMT6): 10.00
- pIC50 (SKOV3): 9.52
- pIC50 (UV4): 10.00

SMILES: COc1cc2cc(C(=O)N3CC(CCl)c4c3cc(N(C)C)c3ccccc43)[nH]c2c(OC)c1OC (stereo not drawn) [15q, 1-(chloromethyl)-5-dimethylamino-3-[(5,6,7-trimethoxy-indol-2-yl)carbonyl]-1,2-dihydro-3H-benz [e] indole]
- pIC50 (AA8): 8.25
- pIC50 (EMT6): 8.42
- pIC50 (SKOV3): 7.80
- pIC50 (UV4): 8.43

SMILES: COC(=O)c1cc2c3c(cc(N)c2[nH]1)N(C(=O)c1cc2cc(OC)c(OC)c(OC)c2[nH]1)CC3CCl (stereo not drawn) [32a, methyl 5-amino-1-(chloromethyl)-3-[(5,6,7-trimethoxyindol-2-yl)carbonyl]-1,2-dihydro-3H-pyrrolo[3,2-e]indole-7-carboxylate]
- pIC50 (AA8): 7.77
- pIC50 (EMT6): 8.25
- pIC50 (SKOV3): 7.85
- pIC50 (UV4): 8.77

SMILES: CNc1cc2c(c3cc(C(=O)OC)[nH]c13)C(CCl)CN2C(=O)c1cc2cc(OC)c(OC)c(OC)c2[nH]1 (stereo not drawn) [32b, methyl 1-(chloromethyl)-5-methylamino-3-[(5,6,7-trimethoxyindol-2-yl)carbanyl]-1,2-dihydro-3H-pyrrolo[3,2-e]indole-7-carboxylate]
- pIC50 (AA8): 8.62
- pIC50 (EMT6): 9.10
- pIC50 (SKOV3): 8.72
- pIC50 (UV4): 9.15

SMILES: COC(=O)c1cc2c3c(cc(N(C)C)c2[nH]1)N(C(=O)c1cc2cc(OC)c(OC)c(OC)c2[nH]1)CC3CCl (stereo not drawn) [32c, methyl 1-(chloromethyl)-5-dimethylamino-3-[(5,6,7-trimethoxyindol-2-yl)carbonyl]-1,2-dihydro-3H-pyrrolo[3,2-e]indole-7-carboxylate]
- pIC50 (AA8): 7.92
- pIC50 (EMT6): 8.28
- pIC50 (SKOV3): 7.92
- pIC50 (UV4): 8.48
